Test results reported in ChEMBL document CHEMBL4800727 (2021).

Experiments:
Details in all cases: Compound concentration 10.0 uM
[1] = target: T1, Muscarinic acetylcholine receptor M4 (Homo sapiens) (UniProt P08173)
T1 sequence (whole entry): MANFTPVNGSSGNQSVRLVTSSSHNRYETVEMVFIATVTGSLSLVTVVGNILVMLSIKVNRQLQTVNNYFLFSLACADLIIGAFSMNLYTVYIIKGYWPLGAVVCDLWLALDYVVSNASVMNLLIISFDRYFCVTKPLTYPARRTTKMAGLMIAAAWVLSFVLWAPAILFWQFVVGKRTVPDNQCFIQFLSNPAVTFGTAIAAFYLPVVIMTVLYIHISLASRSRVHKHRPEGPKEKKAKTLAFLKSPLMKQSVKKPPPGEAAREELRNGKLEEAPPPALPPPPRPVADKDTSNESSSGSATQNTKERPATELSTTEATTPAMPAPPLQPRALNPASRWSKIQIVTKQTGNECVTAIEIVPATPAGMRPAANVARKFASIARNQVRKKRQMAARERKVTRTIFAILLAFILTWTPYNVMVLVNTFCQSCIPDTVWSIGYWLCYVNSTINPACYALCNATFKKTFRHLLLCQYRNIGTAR

[2] = target: Sigma intracellular receptor 2 (Homo sapiens) (UniProt Q5BJF2)
Chain of Sigma intracellular receptor 2 (Homo sapiens) (Q5BJF2 whole entry): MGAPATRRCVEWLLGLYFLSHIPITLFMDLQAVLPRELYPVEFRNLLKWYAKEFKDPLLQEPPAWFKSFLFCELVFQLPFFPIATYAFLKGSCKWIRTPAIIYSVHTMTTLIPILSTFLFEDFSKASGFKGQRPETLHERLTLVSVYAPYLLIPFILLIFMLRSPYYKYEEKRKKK

[3] = target: Sodium-dependent dopamine transporter (Homo sapiens, UniProt Q01959)
Chain of Sodium-dependent dopamine transporter (Q01959 whole entry): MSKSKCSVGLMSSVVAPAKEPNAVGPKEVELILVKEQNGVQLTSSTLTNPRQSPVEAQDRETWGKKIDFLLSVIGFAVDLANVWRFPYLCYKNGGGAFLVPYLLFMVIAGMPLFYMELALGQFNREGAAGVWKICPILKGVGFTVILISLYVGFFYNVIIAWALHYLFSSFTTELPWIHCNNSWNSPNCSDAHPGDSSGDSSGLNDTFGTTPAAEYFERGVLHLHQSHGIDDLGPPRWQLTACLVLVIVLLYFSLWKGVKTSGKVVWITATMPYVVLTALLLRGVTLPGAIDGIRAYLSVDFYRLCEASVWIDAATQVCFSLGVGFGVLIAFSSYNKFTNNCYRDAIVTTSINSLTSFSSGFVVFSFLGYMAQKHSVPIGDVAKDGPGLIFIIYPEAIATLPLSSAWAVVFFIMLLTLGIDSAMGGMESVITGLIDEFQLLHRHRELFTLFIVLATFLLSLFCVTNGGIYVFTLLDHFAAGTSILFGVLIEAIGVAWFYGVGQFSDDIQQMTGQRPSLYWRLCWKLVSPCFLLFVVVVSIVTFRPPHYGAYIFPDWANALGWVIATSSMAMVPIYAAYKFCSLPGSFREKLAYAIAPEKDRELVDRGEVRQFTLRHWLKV

[4] = target: Alpha-1A adrenergic receptor (Homo sapiens) (UniProt P35348)
Chain of Alpha-1A adrenergic receptor (Homo sapiens) (P35348 whole entry): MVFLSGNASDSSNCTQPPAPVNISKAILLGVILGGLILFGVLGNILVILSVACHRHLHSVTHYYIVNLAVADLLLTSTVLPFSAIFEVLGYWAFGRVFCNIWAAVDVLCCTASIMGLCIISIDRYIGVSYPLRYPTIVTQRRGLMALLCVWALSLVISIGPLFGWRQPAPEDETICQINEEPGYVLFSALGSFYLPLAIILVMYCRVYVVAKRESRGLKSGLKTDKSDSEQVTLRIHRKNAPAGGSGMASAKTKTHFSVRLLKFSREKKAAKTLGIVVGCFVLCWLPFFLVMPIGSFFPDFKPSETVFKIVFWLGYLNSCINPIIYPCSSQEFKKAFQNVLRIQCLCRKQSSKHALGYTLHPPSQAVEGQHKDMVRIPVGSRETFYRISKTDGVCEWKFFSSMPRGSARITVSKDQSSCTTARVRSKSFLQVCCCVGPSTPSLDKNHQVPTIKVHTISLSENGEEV

[5] = target: 5-hydroxytryptamine receptor 2A (Homo sapiens) (UniProt P28223)
Chain of 5-hydroxytryptamine receptor 2A (Homo sapiens) (P28223 whole entry): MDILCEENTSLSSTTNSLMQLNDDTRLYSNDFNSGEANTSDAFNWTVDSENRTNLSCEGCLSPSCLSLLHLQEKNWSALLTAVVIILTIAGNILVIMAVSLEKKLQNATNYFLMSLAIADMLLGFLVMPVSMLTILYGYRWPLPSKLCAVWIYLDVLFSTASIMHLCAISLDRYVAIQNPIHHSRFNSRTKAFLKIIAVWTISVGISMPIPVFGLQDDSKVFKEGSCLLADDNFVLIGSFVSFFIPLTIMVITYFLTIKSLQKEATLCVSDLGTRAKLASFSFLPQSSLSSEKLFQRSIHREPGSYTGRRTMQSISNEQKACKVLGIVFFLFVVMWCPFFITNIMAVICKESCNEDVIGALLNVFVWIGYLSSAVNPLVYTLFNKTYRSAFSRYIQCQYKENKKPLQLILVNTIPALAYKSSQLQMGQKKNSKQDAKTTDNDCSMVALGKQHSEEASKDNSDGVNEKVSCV

[6] = target: 5-hydroxytryptamine receptor 1D (Homo sapiens) (UniProt P28221)
[7] = target: 5-hydroxytryptamine receptor 7 (Homo sapiens, UniProt P34969)
[8] = target: Delta-type opioid receptor (Homo sapiens) (UniProt P41143)
Chain of Delta-type opioid receptor (Homo sapiens) (P41143 whole entry): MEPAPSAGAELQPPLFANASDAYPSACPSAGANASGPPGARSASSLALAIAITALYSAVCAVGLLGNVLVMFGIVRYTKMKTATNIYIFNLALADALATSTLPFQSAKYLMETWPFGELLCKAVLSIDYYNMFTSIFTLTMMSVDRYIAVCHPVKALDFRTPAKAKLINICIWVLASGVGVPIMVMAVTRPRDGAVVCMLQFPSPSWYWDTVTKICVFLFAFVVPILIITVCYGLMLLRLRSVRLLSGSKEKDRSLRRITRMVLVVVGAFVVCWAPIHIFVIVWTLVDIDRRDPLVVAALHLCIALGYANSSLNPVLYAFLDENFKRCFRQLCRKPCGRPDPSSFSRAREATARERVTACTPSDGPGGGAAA

[9] = target: T2, Muscarinic acetylcholine receptor M2 (Homo sapiens) (UniProt P08172)
T2 sequence (whole entry): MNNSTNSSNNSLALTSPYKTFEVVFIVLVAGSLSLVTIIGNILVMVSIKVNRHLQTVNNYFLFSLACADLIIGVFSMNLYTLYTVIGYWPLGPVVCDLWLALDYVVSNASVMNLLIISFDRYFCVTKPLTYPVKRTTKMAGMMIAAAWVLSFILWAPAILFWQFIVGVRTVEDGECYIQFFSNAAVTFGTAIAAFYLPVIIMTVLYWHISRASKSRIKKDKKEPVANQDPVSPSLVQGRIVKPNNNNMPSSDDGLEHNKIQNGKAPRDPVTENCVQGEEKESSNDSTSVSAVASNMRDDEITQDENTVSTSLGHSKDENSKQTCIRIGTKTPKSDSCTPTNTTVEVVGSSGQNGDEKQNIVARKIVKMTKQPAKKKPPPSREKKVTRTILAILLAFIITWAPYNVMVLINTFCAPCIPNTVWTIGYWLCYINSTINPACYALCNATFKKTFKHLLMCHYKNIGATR

[10] = target: Sigma non-opioid intracellular receptor 1 (Homo sapiens) (UniProt Q99720)
Chain of Sigma non-opioid intracellular receptor 1 (Homo sapiens) (Q99720 whole entry): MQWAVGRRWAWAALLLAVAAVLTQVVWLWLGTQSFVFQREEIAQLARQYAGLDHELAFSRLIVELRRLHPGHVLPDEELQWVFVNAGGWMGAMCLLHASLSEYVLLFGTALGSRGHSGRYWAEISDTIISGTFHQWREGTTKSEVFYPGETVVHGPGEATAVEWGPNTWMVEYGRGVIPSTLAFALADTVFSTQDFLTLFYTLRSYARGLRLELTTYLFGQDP

[11] = target: D(1A) dopamine receptor (Homo sapiens) (UniProt P21728)
Chain of D(1A) dopamine receptor (Homo sapiens) (P21728 whole entry): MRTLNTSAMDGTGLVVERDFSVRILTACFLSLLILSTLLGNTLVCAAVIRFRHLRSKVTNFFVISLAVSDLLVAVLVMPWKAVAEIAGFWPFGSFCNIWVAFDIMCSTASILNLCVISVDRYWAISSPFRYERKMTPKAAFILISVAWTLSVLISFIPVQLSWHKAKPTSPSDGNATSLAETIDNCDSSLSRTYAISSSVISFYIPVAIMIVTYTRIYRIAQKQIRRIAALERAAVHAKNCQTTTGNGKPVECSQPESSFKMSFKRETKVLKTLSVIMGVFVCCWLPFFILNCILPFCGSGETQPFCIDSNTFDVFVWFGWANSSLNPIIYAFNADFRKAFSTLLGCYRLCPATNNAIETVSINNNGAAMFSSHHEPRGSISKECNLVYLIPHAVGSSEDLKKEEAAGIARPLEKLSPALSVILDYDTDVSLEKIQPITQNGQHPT

[12] = target: Sodium-dependent noradrenaline transporter (Homo sapiens) (UniProt P23975)
[13] = target: T3, Muscarinic acetylcholine receptor M1 (Homo sapiens) (UniProt P11229)
T3 sequence (whole entry): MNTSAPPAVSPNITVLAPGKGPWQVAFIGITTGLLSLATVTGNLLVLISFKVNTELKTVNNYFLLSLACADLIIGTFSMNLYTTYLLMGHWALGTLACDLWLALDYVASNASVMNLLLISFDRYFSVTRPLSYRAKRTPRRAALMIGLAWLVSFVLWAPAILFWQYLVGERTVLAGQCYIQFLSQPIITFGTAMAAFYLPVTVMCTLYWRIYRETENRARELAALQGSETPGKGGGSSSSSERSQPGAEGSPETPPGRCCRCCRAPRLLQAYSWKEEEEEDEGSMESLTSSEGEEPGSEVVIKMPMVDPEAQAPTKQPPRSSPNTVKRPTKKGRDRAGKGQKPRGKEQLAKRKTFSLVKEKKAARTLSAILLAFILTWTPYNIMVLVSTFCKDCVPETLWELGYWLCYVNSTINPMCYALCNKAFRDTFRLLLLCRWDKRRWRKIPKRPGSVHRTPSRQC

[14] = target: Alpha-1D adrenergic receptor (Homo sapiens) (UniProt P25100)
Chain of Alpha-1D adrenergic receptor (Homo sapiens) (P25100 whole entry): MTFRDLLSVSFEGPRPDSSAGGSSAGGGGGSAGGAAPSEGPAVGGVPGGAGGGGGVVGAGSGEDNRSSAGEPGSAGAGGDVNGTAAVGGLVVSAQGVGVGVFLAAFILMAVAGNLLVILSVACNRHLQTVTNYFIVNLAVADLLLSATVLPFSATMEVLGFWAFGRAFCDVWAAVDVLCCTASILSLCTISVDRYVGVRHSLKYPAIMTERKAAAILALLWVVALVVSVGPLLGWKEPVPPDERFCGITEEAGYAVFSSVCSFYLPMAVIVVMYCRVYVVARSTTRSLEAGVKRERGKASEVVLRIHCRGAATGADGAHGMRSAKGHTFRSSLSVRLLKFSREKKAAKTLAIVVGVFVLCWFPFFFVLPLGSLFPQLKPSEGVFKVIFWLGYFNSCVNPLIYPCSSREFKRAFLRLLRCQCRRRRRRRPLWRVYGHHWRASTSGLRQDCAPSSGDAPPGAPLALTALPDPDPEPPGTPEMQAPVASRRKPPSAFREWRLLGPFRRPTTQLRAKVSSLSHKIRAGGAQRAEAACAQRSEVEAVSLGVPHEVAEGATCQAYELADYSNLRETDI

[15] = target: Histamine H1 receptor (Homo sapiens) (UniProt P35367)
[16] = target: Beta-2 adrenergic receptor (Homo sapiens) (UniProt P07550)
Chain of Beta-2 adrenergic receptor (Homo sapiens) (P07550 whole entry, looked up): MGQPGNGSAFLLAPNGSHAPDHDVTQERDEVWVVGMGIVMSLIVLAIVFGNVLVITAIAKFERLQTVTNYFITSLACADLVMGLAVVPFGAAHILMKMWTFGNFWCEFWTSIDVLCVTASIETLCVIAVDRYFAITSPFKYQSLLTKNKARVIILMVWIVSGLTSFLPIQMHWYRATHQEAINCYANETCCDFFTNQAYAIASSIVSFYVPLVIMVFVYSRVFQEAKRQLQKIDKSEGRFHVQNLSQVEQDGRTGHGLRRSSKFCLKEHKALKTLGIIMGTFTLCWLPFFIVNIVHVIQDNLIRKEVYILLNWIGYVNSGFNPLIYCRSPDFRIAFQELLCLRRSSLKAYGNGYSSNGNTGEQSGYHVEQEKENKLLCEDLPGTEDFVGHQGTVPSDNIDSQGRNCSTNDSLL

[17] = target: 5-hydroxytryptamine receptor 1B (Homo sapiens) (UniProt P28222)
Chain of 5-hydroxytryptamine receptor 1B (Homo sapiens) (P28222 whole entry): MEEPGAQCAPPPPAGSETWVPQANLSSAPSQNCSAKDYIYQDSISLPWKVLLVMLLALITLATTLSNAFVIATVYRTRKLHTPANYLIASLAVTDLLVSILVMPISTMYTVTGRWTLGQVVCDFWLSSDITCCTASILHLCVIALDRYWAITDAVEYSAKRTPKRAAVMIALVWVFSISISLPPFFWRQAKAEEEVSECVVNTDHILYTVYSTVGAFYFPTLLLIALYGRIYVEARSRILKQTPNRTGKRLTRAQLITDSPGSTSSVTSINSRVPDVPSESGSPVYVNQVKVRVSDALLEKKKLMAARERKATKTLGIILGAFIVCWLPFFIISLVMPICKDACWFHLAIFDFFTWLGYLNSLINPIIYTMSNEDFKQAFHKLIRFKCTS

[18] = target: Histamine H3 receptor (Homo sapiens) (UniProt Q9Y5N1)
Chain of Histamine H3 receptor (Homo sapiens) (Q9Y5N1 whole entry): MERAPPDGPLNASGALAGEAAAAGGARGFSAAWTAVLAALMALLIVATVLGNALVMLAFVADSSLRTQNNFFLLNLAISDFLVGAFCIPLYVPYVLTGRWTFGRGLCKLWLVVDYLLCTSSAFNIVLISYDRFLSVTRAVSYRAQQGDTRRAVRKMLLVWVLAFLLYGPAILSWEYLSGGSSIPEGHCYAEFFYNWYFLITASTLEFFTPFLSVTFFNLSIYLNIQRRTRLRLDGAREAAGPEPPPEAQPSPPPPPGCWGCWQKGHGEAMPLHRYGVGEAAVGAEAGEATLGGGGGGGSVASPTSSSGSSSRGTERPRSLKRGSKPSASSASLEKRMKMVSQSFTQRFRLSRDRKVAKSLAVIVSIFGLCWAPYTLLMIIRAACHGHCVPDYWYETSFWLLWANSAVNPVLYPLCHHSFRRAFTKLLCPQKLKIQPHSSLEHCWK

[19] = target: Alpha-2C adrenergic receptor (Homo sapiens) (UniProt P18825)
[20] = target: 5-hydroxytryptamine receptor 6 (Homo sapiens) (UniProt P50406)
[21] = target: GABA-A receptor; anion channel (Rattus norvegicus) (UniProt O09028+P15431+P18506+P18508+P19969+P20236+P23574+P23576+P28471+P28473+P30191+P62813+P63079+P63138+Q91ZM7+Q9ES14)

SMILES	inhibition [1]	inhibition [2]	inhibition [3]	inhibition [4]	inhibition [5]	inhibition [6]	inhibition [7]	inhibition [8]	inhibition [9]	inhibition [10]	inhibition [11]	inhibition [12]	inhibition [13]	inhibition [14]	inhibition [15]	inhibition [16]	inhibition [17]	inhibition [18]	inhibition [19]	inhibition [20]	further results
c1ccc(C2CCN(c3cnc4c(N5CCOCC5)nccn34)CC2)cc1	-5.45%	31.6%	85.9%	22.5%	13.1%	1.09%	20.2%	2.73%	9.44%	44%	10.6%	17.4%	23.7%	10.7%	11.2%	8.86%	8.68%	7.29%	16.5%	-7.87%	inhibition [21]: 59.8%
COCCc1ccc(-c2c(C)nc3c(N4CCOCC4)ccnn23)cn1 [JNJ-42396302]	5.21%	3.07%	9.55%	23%	45.9%	11.5%	96.1%	7.84%	10.4%	-2.53%	2.41%	16%	2.83%	15.3%	24.6%	-1.12%	-0.76%	3.7%	41.3%	18.5%	inhibition [21]: 0.32%
